# Results: ChEMBL document CHEMBL3885861, “Open TG-GATES”
# Species on record: Rattus norvegicus
# Test: Open TG-GATES - Regimen: Daily Repeat
# Assay type: toxicity, organism-based, Sprague-Dawley
# Set-up: regimen Daily Repeat, gender Male, age 6 weeks
# Conditions: in vivo, po, 300 mg/kg, route gavage, dose level Middle; for APTT / Bas / Eos / Fbg / Hb / Ht / Lym / MCH / MCHC / MCV / Mono / Neu / PT / Plat / RBC / Ret / WBC: tissue Blood; for KIDNEY_L / KIDNEY_R / KIDNEY_TOTAL: tissue Kidney; for LIVER: tissue Liver; for A/G / ALP / ALT / AST / BUN / CRE / Ca / Cl / DBIL / GLC / IP / LDH / Na / PL / RALB / TBIL / TC / TG / TP / gamma-GTP: tissue Plasma
smiles,measurement,setting,value
NC(N)=Nc1nc(CSCCC(N)=NS(N)(=O)=O)cs1 [FAMOTIDINE],TERMINAL_BW,"72 h, time 3 day",225.8 g
same,APTT,"72 h, time 3 day",21.2 s
same,Bas,"72 h, time 3 day",0%
same,Eos,"72 h, time 3 day",1%
same,Fbg,"72 h, time 3 day",222 mg/dL
same,Hb,"72 h, time 3 day",13.6 g/dL
same,Ht,"72 h, time 3 day",37.4%
same,Lym,"72 h, time 3 day",82%
same,MCH,"72 h, time 3 day",23 pg
same,MCHC,"72 h, time 3 day",36.3%
same,MCV,"72 h, time 3 day",63.4 fL
same,Mono,"72 h, time 3 day",2.6%
same,Neu,"72 h, time 3 day",13.2%
same,PT,"72 h, time 3 day",12 s
same,Plat,"72 h, time 3 day",127.7 x10_4/uL
same,RBC,"72 h, time 3 day",589.8 x10_4/ul
same,Ret,"72 h, time 3 day",5.1%
same,WBC,"72 h, time 3 day",106.3 x10_2/uL
same,KIDNEY_L,"72 h, time 3 day",1 g
same,KIDNEY_R,"72 h, time 3 day",1 g
same,KIDNEY_TOTAL,"72 h, time 3 day",2 g
same,LIVER,"72 h, time 3 day",10.4 g
same,A/G,"72 h, time 3 day",1.7
same,ALP,"72 h, time 3 day",998.8 IU/L
same,ALT,"72 h, time 3 day",33.6 IU/L
same,AST,"72 h, time 3 day",65 IU/L
same,BUN,"72 h, time 3 day",14.4 mg/dL
same,CRE,"72 h, time 3 day",0.4 mg/dL
same,Ca,"72 h, time 3 day",10.9 mg/dL
same,Cl,"72 h, time 3 day",102.6 meq/L
same,DBIL,"72 h, time 3 day",0.082 mg/dL
same,GLC,"72 h, time 3 day",186.2 mg/dL
same,IP,"72 h, time 3 day",7.8 mg/dL
same,LDH,"72 h, time 3 day",194.2 IU/L
same,Na,"72 h, time 3 day",139.2 meq/L
same,PL,"72 h, time 3 day",141.4 mg/dL
same,RALB,"72 h, time 3 day",3.5 g/dL
same,TBIL,"72 h, time 3 day",0.1 mg/dL
same,TC,"72 h, time 3 day",76.2 mg/dL
same,TG,"72 h, time 3 day",77.6 mg/dL
same,TP,"72 h, time 3 day",5.6 g/dL
same,gamma-GTP,"72 h, time 3 day",1.2 IU/L
same,TERMINAL_BW,"[…], time 7 day",261.1 g
same,TERMINAL_BW,"[…], time 14 day",316.2 g
same,TERMINAL_BW,"[…], time 28 day",394.2 g
same,APTT,"[…], time 7 day",20.3 s
same,Bas,"[…], time 7 day",0%
same,Eos,"[…], time 7 day",1%
same,Fbg,"[…], time 7 day",225 mg/dL
same,Hb,"[…], time 7 day",13.9 g/dL
same,Ht,"[…], time 7 day",38.8%
same,Lym,"[…], time 7 day",79.2%
same,MCH,"[…], time 7 day",22.1 pg
same,MCHC,"[…], time 7 day",35.8%
same,MCV,"[…], time 7 day",61.7 fL
same,Mono,"[…], time 7 day",2.2%
same,Neu,"[…], time 7 day",16%
same,PT,"[…], time 7 day",12 s
same,Plat,"[…], time 7 day",114.6 x10_4/uL
same,RBC,"[…], time 7 day",629.6 x10_4/ul
same,Ret,"[…], time 7 day",5.2%
same,WBC,"[…], time 7 day",85.9 x10_2/uL
same,APTT,"[…], time 14 day",19.7 s
same,Bas,"[…], time 14 day",0%
same,Eos,"[…], time 14 day",0.8%
same,Fbg,"[…], time 14 day",224 mg/dL
same,Hb,"[…], time 14 day",14.4 g/dL
same,Ht,"[…], time 14 day",42%
same,Lym,"[…], time 14 day",79%
same,MCH,"[…], time 14 day",20.9 pg
same,MCHC,"[…], time 14 day",34.3%
same,MCV,"[…], time 14 day",60.9 fL
same,Mono,"[…], time 14 day",2.8%
same,Neu,"[…], time 14 day",16%
same,PT,"[…], time 14 day",12.4 s
same,Plat,"[…], time 14 day",120.5 x10_4/uL
same,RBC,"[…], time 14 day",689.4 x10_4/ul
same,Ret,"[…], time 14 day",4.3%
same,WBC,"[…], time 14 day",117 x10_2/uL
same,APTT,"[…], time 28 day",20.2 s
same,Bas,"[…], time 28 day",0%
same,Eos,"[…], time 28 day",1.4%
same,Fbg,"[…], time 28 day",220.6 mg/dL
same,Hb,"[…], time 28 day",15.4 g/dL
same,Ht,"[…], time 28 day",43.3%
same,Lym,"[…], time 28 day",82.2%
same,MCH,"[…], time 28 day",20 pg
same,MCHC,"[…], time 28 day",35.4%
same,MCV,"[…], time 28 day",56.4 fL
same,Mono,"[…], time 28 day",1.6%
same,Neu,"[…], time 28 day",13.4%
same,PT,"[…], time 28 day",12.5 s
same,Plat,"[…], time 28 day",100.3 x10_4/uL
same,RBC,"[…], time 28 day",768.2 x10_4/ul
same,Ret,"[…], time 28 day",2.3%
same,WBC,"[…], time 28 day",116.4 x10_2/uL
same,KIDNEY_L,"[…], time 7 day",1.2 g
same,KIDNEY_R,"[…], time 7 day",1.1 g
same,KIDNEY_TOTAL,"[…], time 7 day",2.3 g
same,KIDNEY_L,"[…], time 14 day",1.2 g
same,KIDNEY_R,"[…], time 14 day",1.2 g
same,KIDNEY_TOTAL,"[…], time 14 day",2.4 g
same,KIDNEY_L,"[…], time 28 day",1.4 g
same,KIDNEY_R,"[…], time 28 day",1.4 g
same,KIDNEY_TOTAL,"[…], time 28 day",2.8 g
same,LIVER,"[…], time 7 day",12.6 g
same,LIVER,"[…], time 14 day",13.4 g
same,LIVER,"[…], time 28 day",14.9 g
same,A/G,"[…], time 7 day",1.5
same,ALP,"[…], time 7 day",921.4 IU/L
same,ALT,"[…], time 7 day",34.2 IU/L
same,AST,"[…], time 7 day",65.2 IU/L
same,BUN,"[…], time 7 day",15.6 mg/dL
same,CRE,"[…], time 7 day",0.4 mg/dL
same,Ca,"[…], time 7 day",10.8 mg/dL
same,Cl,"[…], time 7 day",103.4 meq/L
same,DBIL,"[…], time 7 day",0.092 mg/dL
same,GLC,"[…], time 7 day",192.8 mg/dL
same,IP,"[…], time 7 day",7.6 mg/dL
same,LDH,"[…], time 7 day",183.4 IU/L
same,Na,"[…], time 7 day",141.4 meq/L
same,PL,"[…], time 7 day",161 mg/dL
same,RALB,"[…], time 7 day",3.4 g/dL
same,TBIL,"[…], time 7 day",0.1 mg/dL
same,TC,"[…], time 7 day",83.8 mg/dL
same,TG,"[…], time 7 day",111.4 mg/dL
same,TP,"[…], time 7 day",5.7 g/dL
same,gamma-GTP,"[…], time 7 day",1.4 IU/L
same,A/G,"[…], time 14 day",1.6
same,ALP,"[…], time 14 day",907.6 IU/L
same,ALT,"[…], time 14 day",40.2 IU/L
same,AST,"[…], time 14 day",66 IU/L
same,BUN,"[…], time 14 day",16 mg/dL
same,CRE,"[…], time 14 day",0.5 mg/dL
same,Ca,"[…], time 14 day",10.6 mg/dL
same,Cl,"[…], time 14 day",103.2 meq/L
same,DBIL,"[…], time 14 day",0.1 mg/dL
same,GLC,"[…], time 14 day",208.2 mg/dL
same,IP,"[…], time 14 day",7.3 mg/dL
same,LDH,"[…], time 14 day",151.6 IU/L
same,Na,"[…], time 14 day",140.2 meq/L
same,PL,"[…], time 14 day",146.6 mg/dL
same,RALB,"[…], time 14 day",3.5 g/dL
same,TBIL,"[…], time 14 day",0.2 mg/dL
same,TC,"[…], time 14 day",76 mg/dL
same,TG,"[…], time 14 day",97.4 mg/dL
same,TP,"[…], time 14 day",5.7 g/dL
same,gamma-GTP,"[…], time 14 day",2.2 IU/L
same,A/G,"[…], time 28 day",1.3
same,ALP,"[…], time 28 day",609.6 IU/L
same,ALT,"[…], time 28 day",35.2 IU/L
same,AST,"[…], time 28 day",66.8 IU/L
same,BUN,"[…], time 28 day",16.6 mg/dL
same,CRE,"[…], time 28 day",0.5 mg/dL
same,Ca,"[…], time 28 day",10.4 mg/dL
same,Cl,"[…], time 28 day",103.4 meq/L
same,DBIL,"[…], time 28 day",0.072 mg/dL
same,GLC,"[…], time 28 day",217.8 mg/dL
same,IP,"[…], time 28 day",7 mg/dL
same,LDH,"[…], time 28 day",160.6 IU/L
same,Na,"[…], time 28 day",141 meq/L
same,PL,"[…], time 28 day",133 mg/dL
same,RALB,"[…], time 28 day",3.3 g/dL
same,TBIL,"[…], time 28 day",0.1 mg/dL
same,TC,"[…], time 28 day",68.6 mg/dL
same,TG,"[…], time 28 day",86.2 mg/dL
same,TP,"[…], time 28 day",5.9 g/dL
same,gamma-GTP,"[…], time 28 day",1 IU/L
